# How the values were obtained:
# [1] = system: CD3+CD8+ lymphocytes from patients with renal cell and ovarian cancer; test: Screening of PAX8 candidate epitopes for recognition by T-cells (IFNγ/TNFα) in carcinoma patients; type: cell-based, human; settings: for recognition by T-cells of patients in peptide pools: 4 pools of three peptides each, every peptide in two pools
# Excerpt: To identify T-cell epitopes, they were screened for recognition by T-cells from patients with renal cell and ovarian cancer which are PAX8 positive tumours secreting cytokine IFNγ or TNFα in response to PAX 8 or control HIV peptide. By using 4 pools of three peptides each, every peptide was present in two pools.
# [2] = system: T2-cells loaded with peptide; test: Cr release assay, peptide-loaded T2-cells; type: cell-based; settings: T-cells induced against peptide 3496 in a renal cancer patient; 10:1 E:T; label = peptide loaded on T2
# Excerpt: (§1) A panel of colorectal cancer cell lines has been characterized expressing both PAX2 and PAX8 to function as targets for recognition by specific T-cells (Table IV).
# [3] = system: colon cancer cell line SW480; test: Cr release assay, colon cancer cell line; type: cell-based
# Excerpt: as §1
# [4] = system: T-cells of a patient with renal cancer; test: Induction of a T-cell response in a cancer patient; set-up: species or system human
# [5] = patient # 1 Ovarian, first line (IFNγ)
# [6] = patient # 1 Ovarian, second line (TNFα)
# [7] = patient # 2 Ovarian, first line (IFNγ)
# [8] = patient # 2 Ovarian, second line (TNFα)
# [9] = patient # 3 Ovarian, first line (IFNγ)
# [10] = patient # 3 Ovarian, second line (TNFα)
# [11] = patient # 4 Ovarian, first line (IFNγ)
# [12] = patient # 4 Ovarian, second line (TNFα)
# [13] = patient # 5 Ovarian, first line (IFNγ)
# [14] = patient # 5 Ovarian, second line (TNFα)
# [15] = patient # 6 Ovarian, first line (IFNγ)
# [16] = patient # 6 Ovarian, second line (TNFα)
# [17] = patient # 7 Renal cell, first line (IFNγ)
# [18] = patient # 7 Renal cell, second line (TNFα)
# [19] = patient # 8 Renal cell, first line (IFNγ)
# [20] = patient # 8 Renal cell, second line (TNFα)
# [21] = patient # 9 Renal cell, first line (IFNγ)
# [22] = patient # 9 Renal cell, second line (TNFα)
substance,measurement,setting,value
A L L S G R E M V (ALLSGREMV; listed as Homo sapiens) [Peptide 359-367],PAX8 candidate epitope recognized (both pools containing it reactive),[1]; [5],no
same,PAX8 candidate epitope recognized (both pools containing it reactive),[1]; [6],no
same,PAX8 candidate epitope recognized (both pools containing it reactive),[1]; [7],no
same,PAX8 candidate epitope recognized (both pools containing it reactive),[1]; [8],no
same,PAX8 candidate epitope recognized (both pools containing it reactive),[1]; [9],no
same,PAX8 candidate epitope recognized (both pools containing it reactive),[1]; [10],no
same,PAX8 candidate epitope recognized (both pools containing it reactive),[1]; [11],no
same,PAX8 candidate epitope recognized (both pools containing it reactive),[1]; [12],no
same,PAX8 candidate epitope recognized (both pools containing it reactive),[1]; [13],no
same,PAX8 candidate epitope recognized (both pools containing it reactive),[1]; [14],no
same,PAX8 candidate epitope recognized (both pools containing it reactive),[1]; [15],no
same,PAX8 candidate epitope recognized (both pools containing it reactive),[1]; [16],no
same,PAX8 candidate epitope recognized (both pools containing it reactive),[1]; [17],no
same,PAX8 candidate epitope recognized (both pools containing it reactive),[1]; [18],no
same,PAX8 candidate epitope recognized (both pools containing it reactive),[1]; [19],no
same,PAX8 candidate epitope recognized (both pools containing it reactive),[1]; [20],no
same,PAX8 candidate epitope recognized (both pools containing it reactive),[1]; [21],no
same,PAX8 candidate epitope recognized (both pools containing it reactive),[1]; [22],no
N L S T H Q T Y P V (NLSTHQTYPV; listed as Homo sapiens) [Peptide 288-298],PAX8 candidate epitope recognized (both pools containing it reactive),[1]; [5],no
same,PAX8 candidate epitope recognized (both pools containing it reactive),[1]; [6],no
same,PAX8 candidate epitope recognized (both pools containing it reactive),[1]; [7],no
same,PAX8 candidate epitope recognized (both pools containing it reactive),[1]; [8],no
same,PAX8 candidate epitope recognized (both pools containing it reactive),[1]; [9],no
same,PAX8 candidate epitope recognized (both pools containing it reactive),[1]; [10],no
same,PAX8 candidate epitope recognized (both pools containing it reactive),[1]; [11],no
same,PAX8 candidate epitope recognized (both pools containing it reactive),[1]; [12],no
same,PAX8 candidate epitope recognized (both pools containing it reactive),[1]; [13],no
same,PAX8 candidate epitope recognized (both pools containing it reactive),[1]; [14],no
same,PAX8 candidate epitope recognized (both pools containing it reactive),[1]; [15],no
same,PAX8 candidate epitope recognized (both pools containing it reactive),[1]; [16],no
same,PAX8 candidate epitope recognized (both pools containing it reactive),[1]; [17],no
same,PAX8 candidate epitope recognized (both pools containing it reactive),[1]; [18],no
same,PAX8 candidate epitope recognized (both pools containing it reactive),[1]; [19],no
same,PAX8 candidate epitope recognized (both pools containing it reactive),[1]; [20],no
same,PAX8 candidate epitope recognized (both pools containing it reactive),[1]; [21],no
same,PAX8 candidate epitope recognized (both pools containing it reactive),[1]; [22],no
S L S S S A F L D L (SLSSSAFLDL; listed as Homo sapiens) [Peptide 323-333],recognition by T-cells of patients in peptide pools,[1],recognized in both pools
same,PAX8 candidate epitope recognized (both pools containing it reactive),[1]; [5],yes
same,PAX8 candidate epitope recognized (both pools containing it reactive),[1]; [6],no
same,PAX8 candidate epitope recognized (both pools containing it reactive),[1]; [7],no
same,PAX8 candidate epitope recognized (both pools containing it reactive),[1]; [8],no
same,PAX8 candidate epitope recognized (both pools containing it reactive),[1]; [9],no
same,PAX8 candidate epitope recognized (both pools containing it reactive),[1]; [10],no
same,PAX8 candidate epitope recognized (both pools containing it reactive),[1]; [11],no
same,PAX8 candidate epitope recognized (both pools containing it reactive),[1]; [12],no
same,PAX8 candidate epitope recognized (both pools containing it reactive),[1]; [13],no
same,PAX8 candidate epitope recognized (both pools containing it reactive),[1]; [14],no
same,PAX8 candidate epitope recognized (both pools containing it reactive),[1]; [15],no
same,PAX8 candidate epitope recognized (both pools containing it reactive),[1]; [16],no
same,PAX8 candidate epitope recognized (both pools containing it reactive),[1]; [17],no
same,PAX8 candidate epitope recognized (both pools containing it reactive),[1]; [18],no
same,PAX8 candidate epitope recognized (both pools containing it reactive),[1]; [19],no
same,PAX8 candidate epitope recognized (both pools containing it reactive),[1]; [20],no
same,PAX8 candidate epitope recognized (both pools containing it reactive),[1]; [21],no
same,PAX8 candidate epitope recognized (both pools containing it reactive),[1]; [22],no
T L D D G K A T L (TLDDGKATL; listed as Homo sapiens) [Peptide 270-278],PAX8 candidate epitope recognized (both pools containing it reactive),[1]; [5],no
same,PAX8 candidate epitope recognized (both pools containing it reactive),[1]; [6],no
same,PAX8 candidate epitope recognized (both pools containing it reactive),[1]; [7],no
same,PAX8 candidate epitope recognized (both pools containing it reactive),[1]; [8],no
same,PAX8 candidate epitope recognized (both pools containing it reactive),[1]; [9],no
same,PAX8 candidate epitope recognized (both pools containing it reactive),[1]; [10],no
same,PAX8 candidate epitope recognized (both pools containing it reactive),[1]; [11],no
same,PAX8 candidate epitope recognized (both pools containing it reactive),[1]; [12],no
same,PAX8 candidate epitope recognized (both pools containing it reactive),[1]; [13],no
same,PAX8 candidate epitope recognized (both pools containing it reactive),[1]; [14],no
same,PAX8 candidate epitope recognized (both pools containing it reactive),[1]; [15],no
same,PAX8 candidate epitope recognized (both pools containing it reactive),[1]; [16],no
same,PAX8 candidate epitope recognized (both pools containing it reactive),[1]; [17],no
same,PAX8 candidate epitope recognized (both pools containing it reactive),[1]; [18],no
same,PAX8 candidate epitope recognized (both pools containing it reactive),[1]; [19],no
same,PAX8 candidate epitope recognized (both pools containing it reactive),[1]; [20],no
same,PAX8 candidate epitope recognized (both pools containing it reactive),[1]; [21],no
same,PAX8 candidate epitope recognized (both pools containing it reactive),[1]; [22],no
T L P G Y P P H I (TLPGYPPHI; listed as Homo sapiens) [Peptide 370-378],PAX8 candidate epitope recognized (both pools containing it reactive),[1]; [5],no
same,PAX8 candidate epitope recognized (both pools containing it reactive),[1]; [6],no
same,PAX8 candidate epitope recognized (both pools containing it reactive),[1]; [7],no
same,PAX8 candidate epitope recognized (both pools containing it reactive),[1]; [8],no
same,PAX8 candidate epitope recognized (both pools containing it reactive),[1]; [9],no
same,PAX8 candidate epitope recognized (both pools containing it reactive),[1]; [10],no
same,PAX8 candidate epitope recognized (both pools containing it reactive),[1]; [11],no
same,PAX8 candidate epitope recognized (both pools containing it reactive),[1]; [12],no
same,PAX8 candidate epitope recognized (both pools containing it reactive),[1]; [13],no
same,PAX8 candidate epitope recognized (both pools containing it reactive),[1]; [14],no
same,PAX8 candidate epitope recognized (both pools containing it reactive),[1]; [15],no
same,PAX8 candidate epitope recognized (both pools containing it reactive),[1]; [16],no
same,PAX8 candidate epitope recognized (both pools containing it reactive),[1]; [17],no
same,PAX8 candidate epitope recognized (both pools containing it reactive),[1]; [18],no
same,PAX8 candidate epitope recognized (both pools containing it reactive),[1]; [19],no
same,PAX8 candidate epitope recognized (both pools containing it reactive),[1]; [20],no
same,PAX8 candidate epitope recognized (both pools containing it reactive),[1]; [21],no
same,PAX8 candidate epitope recognized (both pools containing it reactive),[1]; [22],no
T L P G Y P P H V [Peptide 3496],specific cytolysis (killing) of peptide-loaded T2-cells,[2],32%
same,cytolysis of SW480 inhibited by cold target,"[3]; T-cells induced against peptide 3496, with cold target",10%
same,specific cytolysis of colon cancer cell line SW480,[3]; T-cells induced against peptide 3496 in a renal cancer patient,28%
same,induction of specific T-cells against the peptide,[4],able to induce specific T-cells
T L T P S N T P L (TLTPSNTPL; listed as Homo sapiens) [Peptide 277-285],recognition by T-cells of patients in peptide pools,[1],recognized in both pools
same,PAX8 candidate epitope recognized (both pools containing it reactive),[1]; [5],no
same,PAX8 candidate epitope recognized (both pools containing it reactive),[1]; [6],no
same,PAX8 candidate epitope recognized (both pools containing it reactive),[1]; [7],no
same,PAX8 candidate epitope recognized (both pools containing it reactive),[1]; [8],no
same,PAX8 candidate epitope recognized (both pools containing it reactive),[1]; [9],no
same,PAX8 candidate epitope recognized (both pools containing it reactive),[1]; [10],no
same,PAX8 candidate epitope recognized (both pools containing it reactive),[1]; [11],no
same,PAX8 candidate epitope recognized (both pools containing it reactive),[1]; [12],no
same,PAX8 candidate epitope recognized (both pools containing it reactive),[1]; [13],no
same,PAX8 candidate epitope recognized (both pools containing it reactive),[1]; [14],no
same,PAX8 candidate epitope recognized (both pools containing it reactive),[1]; [15],no
same,PAX8 candidate epitope recognized (both pools containing it reactive),[1]; [16],no
same,PAX8 candidate epitope recognized (both pools containing it reactive),[1]; [17],no
same,PAX8 candidate epitope recognized (both pools containing it reactive),[1]; [18],no
same,PAX8 candidate epitope recognized (both pools containing it reactive),[1]; [19],no
same,PAX8 candidate epitope recognized (both pools containing it reactive),[1]; [20],no
same,PAX8 candidate epitope recognized (both pools containing it reactive),[1]; [21],no
same,PAX8 candidate epitope recognized (both pools containing it reactive),[1]; [22],yes

# Source: patent publication US20110015133A1, “PAX2 AND PAX8 AS TUMOUR TARGETS FOR IMMUNOLOGIC AND MOLECULAR TREATMENT STRATEGIES” (Charite-Universitatsmedizin Berlin, priority 2006, published 2011)
